Experimental data as given in US20210308182A1, “REGULATORY T CELL EPITOPES” (EpiVax Inc., priority 2020, published 2021).

Legend:
CD4+ effector T cells = format: cell-based, human
[1] = test system: T cells of PBMCs from lupus patients; details: randomly selected lupus patients; cited from earlier work
human DR molecules = details: cited from earlier work

Sequence	suppression of activated effector CD4+ T cells (CD4+/CD25-high/FoxP3-intermediate) reacting to Tetanus Toxoid (CD4+ effector T cells)	suppression of proliferation of CD4+ effector T cells (CFSE) (CD4+ effector T cells)	lupus patients whose PBMCs contain T cells that proliferate in response to the peptide [1] [%]	binding to soluble HLA class II molecules (human DR molecules)
KTLYLQMNSLRAEDTAKH (listed as Homo sapiens) [SEQ ID NO: 7]	strongly suppressed	Suppressed		
RIHMVYSKRSGKPRGYAFIEY (listed as Homo sapiens) [peptide 131-151]			40	binds to a large panel of human DR molecules
